Laboratory results reported in PubChem BioAssay (NCI).
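Cells were grown in 96-well plates and exposed to each compound for 48 hours at five concentrations; endpoints were interpolated linearly between bracketing concentrations, or set to the highest concentration if not reached. GI50: concentration for 50% inhibition of growth. Definition used: TGI = concentration required for complete inhibition of growth.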

Key:
Assay in all cases: NCI tumour cell line growth inhibition, 48 h
HOP-62 NSCLC = tested on: HOP-62 NSCLC
K-562 leukemia = tested on: K-562 leukemia
COLO 205 colon = tested on: COLO 205 colon
T-47D breast = tested on: T-47D breast
PC-3 prostate = tested on: PC-3 prostate
HCT-116 colon = tested on: HCT-116 colon
NCI-H23 lung = tested on: NCI-H23 lung
SK-MEL-5 melanoma = tested on: SK-MEL-5 melanoma
HL-60(TB) leukemia = tested on: HL-60(TB) leukemia
OVCAR-3 ovarian = tested on: OVCAR-3 ovarian

Compound	GI50 (HOP-62 NSCLC)	TGI (HOP-62 NSCLC)	GI50 (K-562 leukemia)	TGI (K-562 leukemia)	GI50 (COLO 205 colon)	TGI (COLO 205 colon)	GI50 (T-47D breast)	TGI (T-47D breast)	GI50 (PC-3 prostate)	TGI (PC-3 prostate)	GI50 (HCT-116 colon)	TGI (HCT-116 colon)	GI50 (NCI-H23 lung)	TGI (NCI-H23 lung)	GI50 (SK-MEL-5 melanoma)	TGI (SK-MEL-5 melanoma)	GI50 (HL-60(TB) leukemia)	TGI (HL-60(TB) leukemia)	GI50 (OVCAR-3 ovarian)	TGI (OVCAR-3 ovarian)
COc1ccc(/C(COc2c(-c3ccccc3)oc3ccccc3c2=O)=N\O)cc1	49.6 µM	> 50 µM	18.9 µM	> 50 µM	12 µM	30.9 µM	13.5 µM	41.6 µM	13.4 µM	35.5 µM	21.8 µM	> 50 µM	24.2 µM	> 50 µM	9.61 µM	20.1 µM	20 µM	> 50 µM		
CC1(C)OC2[C@@H](CNC(=O)NC(=O)NC(=O)CI)O[C@@H](n3cnc4c(NC(=O)Nc5ccccc5)ncnc43)[C@H]2O1 (stereo partly drawn)	> 50 µM	> 50 µM	2.3 µM	10.5 µM	6.44 µM	14.5 µM	9.64 µM	21.5 µM	8 µM	16.6 µM	10.7 µM	25.4 µM	7.46 µM	16.7 µM	8.74 µM	16.2 µM	1.61 µM	4.13 µM	5.72 µM	12.6 µM
CCCn1cnc2c(SCc3ccccc3Cl)nc(N)nc21	21.1 µM	> 100 µM	6.55 µM	> 100 µM	10.7 µM	> 100 µM	22 µM	80.8 µM	6.49 µM	37.5 µM	5.2 µM	17.5 µM	30 µM	> 100 µM	4.22 µM	19 µM	5.53 µM	28.6 µM	20.5 µM	79.6 µM
O=C(N/N=C/c1ccccc1O)c1ccccc1Nc1ccnc(C(F)(F)F)c1	0.41 µM	13.4 µM	0.53 µM	> 100 µM	0.3 µM	41.3 µM	1.07 µM	> 78.4 µM	0.295 µM	10.1 µM	0.414 µM	20.9 µM	1.33 µM	> 44.9 µM	0.432 µM	5.53 µM	0.293 µM	1.69 µM	0.45 µM	22.6 µM
O=C1Nc2c(C(F)(F)F)cccc2[C@]1(c1ccc(O)cc1)c1ccc(OC(F)(F)F)cc1	15.7 µM	39.9 µM	8.57 µM	> 100 µM	3.26 µM	25.4 µM	1.18 µM	17.9 µM	4.31 µM	21.3 µM	7.73 µM	23.9 µM	11 µM	26.4 µM	11.9 µM	24.6 µM	13.7 µM	32.5 µM	3.95 µM	16.3 µM
CC(=O)OC[C@]1(C)C=C2C(=O)[C@](C)(O)C3(CC3)C(C)=C2[C@H]1O	0.239 µM	1.23 µM	0.131 µM	> 100 µM	0.11 µM	0.308 µM	0.207 µM	3.65 µM	0.135 µM	1.29 µM	0.0321 µM	> 100 µM	0.0633 µM	0.367 µM	0.137 µM	0.3 µM	0.0861 µM	0.852 µM	0.0424 µM	0.417 µM
